{"source": "patent US20250332212A1", "about": "“METHOD FOR TREATING OR PREVENTING ALOPECIA” (Suzhou Mingren Pharmaceutical Biotechnology Co., Ltd., priority 2024, published 2025)", "key": {"type II 5α-reductase": {"biological_target": "type II 5α-reductase (Homo sapiens, UniProt P31213)", "sequence (P31213 whole entry)": "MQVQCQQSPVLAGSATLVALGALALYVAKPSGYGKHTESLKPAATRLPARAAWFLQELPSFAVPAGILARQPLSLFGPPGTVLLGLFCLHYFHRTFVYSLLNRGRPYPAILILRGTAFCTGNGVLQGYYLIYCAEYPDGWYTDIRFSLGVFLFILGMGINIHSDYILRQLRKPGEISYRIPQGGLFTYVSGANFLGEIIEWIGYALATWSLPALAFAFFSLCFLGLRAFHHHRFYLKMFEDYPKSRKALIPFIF", "settings": "in serum and scalp; cited from earlier work"}, "[1]": {"settings": "background statement; cited from earlier work"}, "[2]": {"tested_on": "TP-induced AGA model mice", "test": "TP-induced AGA model, Animal model III (specific inhibition of SP1 by MTA)", "format": "in vivo, C57BL/6J male mice", "settings": "MTA 0.3 mg/kg/d intraperitoneally with 1% JP1", "description": "To verify that JP1 promotes AGA follicle regeneration through the activation of the Wnt/β-catenin signaling pathway via the MAPK/E2F1/SP1 signaling axis, the example constructed a mouse model of AGA with specific inhibition of SP1 (FIG. 15A). The specific experimental details are described according to “Animal model III” of “1. TP-induced AGA model” in “Experimental Methods”.\nTo further confirm that JP1 promotes the growth of hair follicles on the back of AGA model mice through the SP1-regulated Wnt/β-catenin signaling pathway at the histomorphometric level, H&E staining was performed on the skin tissues of the model mice of Example 15 at different time points (days 4, 8, and 12 post-intervention).\nThe mice used in this study were 5-week-old C57BL/6J male mice (18-20 g), which were purchased from Jiangsu Jicui Pharmachem Biotechnology Co. All the animals used in the experiments were housed in the SPF-level environment of the Medical Laboratory Animal Center of Nanjing Medical University, and the relevant animal experimental operations were approved by the Animal Ethics Committee of Nanjing Medical University. The control group was left untreated, and the other groups were injected with TP subcutaneously on their backs every day. Two weeks later, the hair on the backs of the mice was shaved with an electric razor, covering an area of 2 cm×4 cm, and then the residual hair was removed with a hair removal cream. The subcutaneous injections of TP on the shaved backs of the mice in the AGA model was continued until the end of the experimental period, and the administration of TP in each of the treatment groups was begun on the 1st day of the dehairing process.\nIn addition to the normal control group (denoted as control) n=20, all mice injected subcutaneously with TP were randomly divided into the following groups (n=20): the model group (denoted as model), the 1% JP1 (skin-coated), and the 1% JP1+MTA group. […] MTA was administered at a dose of 0.3 mg/kg/d, qd, intraperitoneally, 100 μL/dose.\nMice were weighed every two days during the experiment. Skin color was assessed against skin score charts. The mice were euthanized and treated at the end of the experiment, and skin tissues were taken from the dorsal decorticated area of the mice. Some of the tissues were fixed with 4% paraformaldehyde solution and then paraffin sections were made for H&E or immunofluorescence staining, etc., and some of the tissues were stored in the refrigerator at −80° C. for relevant molecular expression assays (qRT-PCR, Western Blot, IP, etc.).\n8.1) Sampling and fixation: After the experiment, skin tissue was taken from the depilated area on the back of the mouse and placed in a 10 mL EP tube. 4% paraformaldehyde was added to the EP tube, and all tissues were immersed to denature and coagulate the proteins of the skin tissue. The original morphology and structure of the cells were maintained.\n8.6) H&E staining: the sections pretreated in distilled water were put into aqueous hematoxylin solution for a few minutes for staining. The color was separated in acid water and ammonia for a few seconds each. After rinsing in running water for 1 h, the sections were placed in distilled water for a few moments. The sections were dehydrated in 70% and 90% alcohol for 10 min each, and stained in alcoholic eosin stain for 2-3 min."}, "[3]": {"tested_on": "SP1, Wnt10a, Wnt10b and β-catenin", "test": "Immunoblotting of SP1 and downstream molecules in skin, Animal model III", "format": "in vivo, mouse", "settings": "dorsal skin", "method": "4.1) Protein extraction: 70 mg of skin tissue was placed in a 1.5 mL centrifuge tube, and 500 μL of tissue lysate RIPA containing protease inhibitor and phosphatase inhibitor was added. The tissue was placed on an ice box, pulverized by a tissue grinder, and then ultrasonically crushed to obtain a tissue suspension, which was then placed in a rotary windmill at 4° C. to be lysed for 2 h. The centrifuge was set at 12,000×g, 4° C., centrifuged for 15 min, and the supernatant was collected as the total protein.\n5.1) Heating of protein samples: the total protein content of each tissue was 50 μg; calculate the volume of a corresponding protein sample, make up the volume with saline to 16 μL, then add 4 μL of 5×SDS sampling buffer, heat at 100° C. for 5 min, and then cool at room temperature and store at −20° C.\n5.7) Primary antibody incubation: the cut protein bands were placed into the corresponding primary antibody and incubated at 4° C. on a shaker overnight, washed with TBST 3 times for 10 min/time."}}}
{"compound": "CC(C)(C)NC(=O)[C@H]1CC[C@H]2[C@@H]3CC[C@H]4NC(=O)C=C[C@]4(C)[C@H]3CC[C@]12C", "note": "[finasteride]", "values": [{"measurement": "reduction of double hydrogen testosterone (DHT)", "setting": "type II 5α-reductase", "result": "more than 60%"}]}
{"compound": "Nc1cc(N2CCCCC2)nc(N)[n+]1[O-]", "note": "[minoxidil]", "values": [{"measurement": "adverse reactions", "setting": "[1]", "result": "itchiness of the scalp, dermatitis, and localized hirsutism"}]}
{"compound": "Mithramycin A [MTA, reference compound]", "values": [{"measurement": "effect of SP1 inhibition on hair follicle growth promotion by JP1", "setting": "[2]", "result": "blocked the hair follicle growth-promoting effect of JP1"}, {"measurement": "effect of MTA on JP1-induced expression of SP1 downstream molecules", "setting": "[3]", "result": "block the effect of JP1 on the expression of SP1 downstream molecules"}]}
